PubChem BioAssay AID1159563 (GlaxoSmithKline (GSK), 2015)
Calls of active or inactive are those of the source. The rule behind the calls is not given here.

system: HepG2 cytotoxicity; assay: HepG2 cell cytotoxicity, cytotoxicity control (AID 1159563)

| Compound | IC50 |
| --- | --- |
| CC(C)COC(=O)Nc1ccc(N2CCC(CNS(=O)(=O)c3ccccc3)CC2)c(F)c1 | > 100 µM (inactive) |
| CCc1ccccc1[C@@H](C)NC(=O)c1cnc2c(cnn2CC)c1NC1CCN(C(N)=O)CC1 | > 100 µM (inactive) |
| Oc1c(-c2n[nH]c(CCc3ccccc3)n2)ncc2cccnc12 | 40 µM |
| CC(C(=O)Nc1ccc(Br)cc1)N1CCN(c2ccc([N+](=O)[O-])cc2)CC1 (centres undefined) | > 100 µM (inactive) |
| CCS(=O)(=O)Nc1ccc(C2=NN(C(=O)c3cccs3)C(c3ccccc3OC)C2)cc1 (centres undefined) | > 100 µM (inactive) |
| O=S(=O)(c1ccccc1C(F)(F)F)N1CCN(Cc2ccc(-n3ccnc3)cc2)CC1 | > 100 µM (inactive) |
| O=C(Nc1cccc(S(=O)(=O)Nc2ccc(Br)cc2)c1)c1ccc([N+](=O)[O-])s1 | 16 µM |
| CCc1cccc(CC)c1-n1c(SCC(=O)N2CC(=O)Nc3ccccc32)nnc1-c1cccnc1 | > 100 µM (inactive) |
| O=C(N1CCc2ccccc2CC1)C1(C(=O)N2CCC(n3c(=O)[nH]c4ncccc43)CC2)CC1 | > 100 µM (inactive) |
| COc1ccc(C(=O)NC2CCN(CCn3c(=O)ccc4ncc(F)cc43)CC2)cc1Cl | > 100 µM (inactive) |
| c1ccc2[nH]c(-c3ccc(N4CCCC4)nc3)nc2c1 | > 100 µM (inactive) |
| COc1cc(NC(=O)Nc2cccc(CNC(=O)OC3CCCCC3)c2)ccc1-c1cnco1 | 40 µM |
| CC1=C(C(=O)Nc2ccc(Cl)cc2)C(c2ccncc2)n2ncc(C(=O)Nc3ccccc3)c2N1 (centres undefined) | 79 µM |
| CN(C)c1ccc(N)cc1CN(CC1CCCO1)S(C)(=O)=O (centres undefined) | > 100 µM (inactive) |
| Cc1cc(NC(=O)CC2CCCCC2)n(-c2nc3c(c(=O)[nH]2)CCC3)n1 | > 100 µM (inactive) |
| COc1ccc(Cc2nc(-c3ncc4cccnc4c3O)n[nH]2)cc1OC | 50 µM |
| COCc1cc(Nc2ccc(Cl)cc2)nc(-c2ccccn2)n1 | 13 µM |
| O=C(NNC(=O)c1ccccn1)c1ccc(-c2ccccc2)cc1 | > 100 µM (inactive) |
| Cc1c(Nc2cc(C3CC3)[nH]n2)ccc(C#N)c1Cl | 40 µM |
| Cn1ccnc1CN1CCc2[nH]cnc2C1c1ccccc1OCc1ccccc1 (centres undefined) | > 100 µM (inactive) |
| O=C(NCCc1csc(-c2ccc(F)cc2)n1)c1cccs1 | > 100 µM (inactive) |
| Cc1cccc(N2CCCN(Cc3c[nH]c4ccccc34)CC2)n1 | 13 µM |
| Clc1cc(Br)ccc1OCCCCn1ccnc1 | 50 µM |
| COc1ccc(NC(=O)c2ccc(NC(=O)CN(c3ccccc3C)S(C)(=O)=O)cc2)cc1 | 40 µM |
| CCCCn1nnnc1CSc1nc(C)cc(C)c1C#N | > 100 µM (inactive) |

| Compound | IC50 |
| --- | --- |
| COc1ccc(Nc2nc(-c3ccccn3)cc(N3CCCC(O)C3)n2)cc1 (centres undefined) | 40 µM |
| O=C(NCc1ccc(Cl)cc1)C1CN(C(=O)c2ccc(F)cc2)CCS1 (centres undefined) | > 100 µM (inactive) |
| COc1ccc(NS(=O)(=O)c2cccc(NC(=O)c3cc(F)cc(F)c3)c2)cc1 | 32 µM |
| Cc1ccc(S(C)(=O)=O)cc1Nc1nccc(-c2sc(N)nc2-c2ccccc2)n1 | 32 µM |
| Cc1ccc(NC(=O)c2ccnc(N3CCCC3)c2)cc1-c1cc(C(N)=O)ccc1C | > 100 µM (inactive) |
| Cc1c([N+](=O)[O-])c(C(=O)Nc2sc3c(c2C#N)CCC(C)C3)nn1C (centres undefined) | > 100 µM (inactive) |
| CCC1Oc2cc(S(=O)(=O)N(C)CC(=O)N3CCc4ccccc4C3)c(C)cc2NC1=O (centres undefined) | > 100 µM (inactive) |
| OCCCNc1nc(Nc2ccncc2)nc2ccccc12 | > 100 µM (inactive) |
| CC(c1cc(Cl)cc(Cl)c1)N(C)c1ncc2c(N)nc(N)nc2n1 (centres undefined) | 63 µM |
| CCC(=O)Nc1ccccc1C(=O)Nc1ccccn1 | > 100 µM (inactive) |
| N#Cc1cccc(CN2CCC(c3nc(-c4ccc(C(F)(F)F)nc4)no3)CC2)c1 | > 100 µM (inactive) |
| CCN(C)Cc1ccc(N2CCC(NS(=O)(=O)c3ccc4c(c3)CCO4)CC2)nc1 | > 100 µM (inactive) |
| Cc1ccc(C)c(CN2C(=O)NC3(CCc4ccccc43)C2=O)c1 (centres undefined) | > 100 µM (inactive) |
| CC(C)CC(=O)Nc1cc(C2CC2)nn1-c1nc2c(c(=O)[nH]1)CCCC2 | > 100 µM (inactive) |
| Cc1cc(Br)cc(C(=O)c2c(C(C)C)c(=O)[nH]c(=O)n2Cc2ccnc(N)c2)c1 | > 100 µM (inactive) |
| Cn1c(CC(=O)NNC(=O)c2ccc3ccccc3n2)nc2ccccc21 | > 100 µM (inactive) |
| CCN(Cc1cccs1)C(=O)CSc1nnc(-c2ccc3c(c2)OCO3)o1 | > 100 µM (inactive) |
| CCN(CC)S(=O)(=O)c1ccc(OC)c(NC(=O)c2ccc([N+](=O)[O-])s2)c1 | > 100 µM (inactive) |
| CN(C)CCN(C)Cc1ccc(F)cc1NS(=O)(=O)c1ccc(Cl)c(Cl)c1 | 40 µM |
| NC(=O)c1ncc(N[C@@H]2CCCNC2)nc1Nc1cccc(Cl)c1 | 10 µM |
| COc1ccc(Nc2nc(NC3CCC(O)CC3)ncc2Br)c(C(N)=O)c1 (centres undefined) | > 100 µM (inactive) |
| Cc1cc(=O)n2nc(Oc3ccc(C#N)cc3Cl)sc2n1 | 40 µM |
| C=CCn1nc([N+](=O)[O-])nc1Oc1ccc(Cl)cc1Cl | > 100 µM (inactive) |
| O=C(Cn1cnc2cc([N+](=O)[O-])ccc2c1=O)NCCc1ccc(Cl)cc1Cl | > 100 µM (inactive) |
| CCOC(=O)c1noc(N)c1-c1ccccc1 | > 100 µM (inactive) |

| Compound | IC50 |
| --- | --- |
| NC(=O)c1ccc(-c2cccc(OCCN3CCN(C4CCCCC4)CC3)c2)cc1 | 50 µM |
| Cc1nn(-c2ccccc2)nc1CNC(=O)CN(Cc1ccccn1)Cc1ccccn1 | > 130 µM (inactive) |
| CCN(CC)c1ncc(C(=O)c2ccc([N+](=O)[O-])o2)s1 | 16 µM |
| O=C(Nc1nc2ccccc2[nH]1)c1c(O)c2cccc3c2n(c1=O)CC3 | 10 µM |
| Cc1nc2c(-c3n[nH]c(-c4ccccc4N)n3)cccn2c1C | 16 µM |
| CCOc1ccc(Nc2ccc(S(=O)(=O)N3CCN(C)CC3)cc2[N+](=O)[O-])cc1OCC | > 100 µM (inactive) |
| COc1ccc(-c2ccc3nnc(-c4ccc(O)c(OC)c4)n3c2)cn1 | > 100 µM (inactive) |
| COc1ccc(OC)c2c(=O)c(Cc3ccccc3)c(C)[nH]c12 | > 100 µM (inactive) |
| CS(=O)(=O)NC1CCC(Nc2ncc(Br)c(Nc3ccccc3C(N)=O)n2)CC1 (centres undefined) | > 100 µM (inactive) |
| COCc1cc(Nc2ccccc2)nc(-c2ccccn2)n1 | 100 µM |
| CC(=O)NCCNc1cc(-c2ccnc(Nc3cccc(Cl)c3)n2)ccn1 | 25 µM |
| O=S1N=C(NCCCN(Cc2ccc(F)cc2)c2ccccn2)C(NCc2ccncc2)=N1 (centres undefined) | 79 µM |
| CC(C(=O)Nc1ccccc1F)N(C)CC(=O)Nc1cccc2ccccc12 (centres undefined) | > 100 µM (inactive) |
| COc1ccc(C2CC(c3ccc(NS(C)(=O)=O)cc3)=NN2C(=O)c2cccs2)cc1OC (centres undefined) | > 100 µM (inactive) |
| CCc1cc(C(=O)Nc2nccn2-c2ccccc2)cs1 | > 100 µM (inactive) |
| CCCN1CCN(Cc2ccc(S(=O)(=O)Nc3cccc(C)c3)cc2)CC1 | > 100 µM (inactive) |
| COc1ccc2ncc(Cl)c(CCN3CC[C@@H](NCc4cc5c(cn4)OCS5)[C@H](O)C3)c2n1 | 50 µM |
| O=S(=O)(NCC(c1cccnc1)N1CCN(c2ccc(F)cc2)CC1)c1cccs1 (centres undefined) | > 100 µM (inactive) |
| Cc1cc2nc(N3CC[C@H]3C(N)=O)nc(Nc3cc(C4CC4)[nH]n3)c2s1 | > 100 µM (inactive) |
| NS(=O)(=O)c1ccc(CNC(=O)c2ccc([N+](=O)[O-])s2)cc1 | 16 µM |
| CN(C)c1ncc(-c2cncn2CCOc2ccc(Cl)cc2)cn1 | > 100 µM (inactive) |
| O=C(COc1nn(-c2ccccc2)c2ncccc12)NCc1ccccc1 | > 100 µM (inactive) |
| O=C(NC(c1ccc(Cl)cc1)c1cnccn1)C1CCN(C(=O)Nc2cccc(C(F)(F)F)c2)CC1 (centres undefined) | > 100 µM (inactive) |
| c1cncc(CN(Cc2ccco2)Cc2cn[nH]c2-c2cccs2)c1 | > 100 µM (inactive) |
| Cc1nc(C(=O)Nc2ccc3c(c2)OCO3)nn1-c1ccc(Cl)cc1 | > 100 µM (inactive) |

| Compound | IC50 |
| --- | --- |
| Cc1cc(C)n(-c2nc(NC(C)C)nc(NC(C)(C)C)n2)n1 | > 100 µM (inactive) |
| OC1CCC(Nc2nccc(-c3sc(C4CCOCC4)nc3-c3ccc(F)c(F)c3)n2)CC1 (centres undefined) | 25 µM |
| CCCCc1cc(Nc2cc(C3CCC3)[nH]n2)nc(N2CCC2C(N)=O)n1 (centres undefined) | > 100 µM (inactive) |
| Cc1ccc2nc(N(Cc3cccnc3)C(=O)CCc3ccccc3)sc2c1 | > 100 µM (inactive) |
| N#Cc1ccc(S(=O)(=O)N2CCN(Cc3cccc(-c4ccncc4)c3)CC2)cc1 | > 100 µM (inactive) |
| CC(C)c1cc(C(=O)N2CCCC(c3cc4ncccc4[nH]3)C2)on1 (centres undefined) | > 100 µM (inactive) |
| O=C(c1ccc(OCCCc2cnc[nH]2)cc1)C1CC1 | > 100 µM (inactive) |
| COc1ccccc1-c1c(C)[nH]c2nc(N)nc(C)c12 | > 100 µM (inactive) |
| COc1ccc([N+](=O)[O-])cc1NC(=O)c1cc(Cl)ccc1O | 10 µM |
| Cn1nccc1-c1cc(OC(CN)c2ccccc2)cnc1-c1ccco1 (centres undefined) | 50 µM |
| Cc1cccnc1CN1CCN(CCCOc2ccc(-c3ccc(C(N)=O)cc3)cc2)CC1 | > 100 µM (inactive) |
| COc1ccc(C(=O)Nc2c(C)nn(COc3cccc(C(F)(F)F)c3)c2C)cc1 | > 100 µM (inactive) |
| CC(C)C[C@H](NC(=O)c1csc(-c2cccs2)n1)C(=O)NC1(C#N)CC1 | > 100 µM (inactive) |
| Cc1ccc2c(c1)-c1onc(C(=O)N3CCCCC3c3cccnc3)c1CO2 (centres undefined) | 50 µM |
| O=C1CN(Cc2ccco2)C2CS(=O)(=O)CC2N1c1ccc(Cl)cc1 (centres undefined) | > 100 µM (inactive) |
| Cc1cc(C)c(C#N)c(SCC(=O)c2ccc3c(c2)OCO3)n1 | > 100 µM (inactive) |
| CCc1cccc(-n2nc(OCC(=O)NC3CCCC3)c3cccnc32)c1 | > 100 µM (inactive) |
| CC(=O)Nc1ccc(CN2CCC(N3CC(c4ccccc4)(c4ccccc4)OCC3=O)CC2)cc1 | 79 µM |
| O=C(c1ccc(Cl)cc1)c1ccc(OC(=O)N2CCOCC2)cc1 | > 100 µM (inactive) |
| CC(C)N(C(=O)CN1C(=O)C(N)C(=O)N(c2ccccc2)c2ccccc21)c1ccccc1 (centres undefined) | > 100 µM (inactive) |
| CCOc1ccc(CN(C)Cc2nc(N)nc(Nc3ccc(C)cc3)n2)cc1 | 32 µM |
| O=C(NCc1nnc2n1CCCCC2)c1csc(-c2ccccc2)n1 | > 100 µM (inactive) |
| Cc1cc(N(C)C)nc(Nc2ccccc2C)n1 | 63 µM |
| Cc1ccc(C)c(-n2nnnc2Sc2nc([N+](=O)[O-])nn2C)c1 | > 100 µM (inactive) |
